Laboratory results: publication PMC10073126, “Levosimendan inhibits disulfide tau oligomerization and ameliorates tau pathology in Tau^P301L-BiFC mice” (Experimental & Molecular Medicine, 2023)
Each block holds one compound with its values, some of them ahead of it.

Legend:
tau [1] = biological target: T1, tau (Homo sapiens, UniProt P10636); assay: Tau-BiFC response in tau-BiFC cells (high-content imaging); type: cell-based; design: expressed in transfected cells; host or cells: HEK293 Tau-BiFC cells (G418-selected); details: 100 μM, 48 h, tauK18^P301L
T1 sequence (P10636 1-441 isoform P10636-8): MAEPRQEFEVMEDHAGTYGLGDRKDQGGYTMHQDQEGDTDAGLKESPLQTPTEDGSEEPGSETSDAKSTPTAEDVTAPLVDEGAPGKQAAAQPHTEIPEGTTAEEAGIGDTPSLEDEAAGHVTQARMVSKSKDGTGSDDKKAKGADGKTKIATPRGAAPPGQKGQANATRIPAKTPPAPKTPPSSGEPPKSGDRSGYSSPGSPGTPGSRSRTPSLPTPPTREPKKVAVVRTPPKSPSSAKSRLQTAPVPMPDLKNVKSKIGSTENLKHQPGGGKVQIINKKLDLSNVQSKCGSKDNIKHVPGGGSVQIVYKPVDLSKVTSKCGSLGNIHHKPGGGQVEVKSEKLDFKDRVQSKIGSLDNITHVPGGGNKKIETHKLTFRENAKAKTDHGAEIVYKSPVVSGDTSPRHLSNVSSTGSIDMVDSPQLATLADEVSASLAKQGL
T1 sequence (P10636 1-441 isoform P10636-8): as above

tauK18 [2] = biological target: T2, tauK18 (Homo sapiens, UniProt P10636); assay: In vitro tau aggregation assay (thioflavin S); type: biochemical; details: heparin-induced, 5 days
T2 construct: under in vitro conditions using a purified tauK18 fragment; 6xHis; made in house; host or cells: E. coli BL21 (DE3)
T2 sequence (P10636 561-685 limits assumed): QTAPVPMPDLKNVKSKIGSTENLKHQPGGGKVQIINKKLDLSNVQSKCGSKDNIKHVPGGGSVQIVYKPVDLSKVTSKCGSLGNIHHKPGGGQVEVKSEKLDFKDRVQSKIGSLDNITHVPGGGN
Method: To evaluate the inhibitory effect of drugs on tau aggregation, tauK18 protein (0.5 mg/mL) was incubated with each drug at various concentrations in the presence of DTT (100 μM) and heparin (0.1 mg/mL) at 37 °C for 5 days with vigorous shaking (220 rpm). For the tau disaggregation assay, the preformed aggregation mixture of tauK18 was incubated with each drug at 37 °C for 4 days with vigorous shaking (220 rpm). On the final day of incubation, the level of β-sheet aggregates was evaluated by thioflavin S (ThS) assay. For the ThS assay, 5 μL of each mixture was transferred to a black 384-well plate with 45 μL of PBS containing 10 μM ThS. ThS fluorescence (λex = 430 nm, and λem = 500 nm) was measured by using a Flexstation2 spectrophotometer (Molecular Devices).

tauK18 fragment = assay: non-reducing SDS-PAGE with Coomassie staining (disulfide-linked oligomers); tauK18 0.5 mg/mL in PBS pH 7.4 with DTT (100 uM) and heparin (0.1 mg/mL), RT, 5 h, shaking; 4-20% gel; DMSO control, MB, LMTM or levosimendan (10, 30, 100 uM)
[3] = test system: primary hippocampal neurons; assay: NeuO staining, number of neurons and neurite lengths; type: cell-based; details: 3 μM, tauK18^P301L, 48 h
Method: (§1) Primary hippocampal neurons were isolated from Day 18 embryonic Sprague‒Dawley rat brains as described previously. The neurons were seeded at a density of 3.5 × 10^5 cells per well on a poly-D-lysine-coated 6-well plate and maintained in neurobasal medium at 37 °C in a humidified atmosphere of 5% CO2. The neurobasal medium contained 2% B27 supplement, 0.5 mM GlutaMAX, 100 units/mL penicillin, and 100 μg/mL streptomycin. Every 3 days, 50% of the medium was replaced with fresh neurobasal medium. At DIV10, neurons were incubated with MB, LMTM (3 µM), or levosimendan (10 µM) in the presence of tauK18^P301L (10 µg/mL) for 48 h.
At DIV10, neurons grown on a 96-well plate were treated with MB, LMTM (3 µM), or levosimendan (10 µM) followed by tauK18^P301L activation. After 48 h, the neurons were stained with NueO (50 nM), a neuron-selective probe. NeuO fluorescence (λex = 460–490 nm and λem = 518–580 nm) images were acquired by using Operetta® (PerkinElmer). The number of neurons and total lengths of neurites were quantified by Harmony 3.1 software (PerkinElmer). Error bars represent the standard deviations (S.D.) of four replicate experiments.

[4] = Cell viability of tau-BiFC cells (number of nuclei); type: cell-based, human; details: human, HEK293 Tau-BiFC cells, 48 h of treatment
Method: HEK293 Tau-BiFC cells were maintained in Dulbecco’s modified Eagle medium (DMEM) supplemented with 10% fetal bovine serum (FBS), 100 units/mL penicillin, 100 µg/mL streptomycin and 100 µg/mL Geneticin (G418) in a humidified atmosphere containing 5% CO2 at 37 °C. Tau-BiFC cells were activated by treatment with FK (30 μM) or tauK18^P301L (5 μg/mL).
For screening of FDA-approved & Passed Phase I Drug Library, tau-BiFC cells were plated on µ-clear 384-well plates. The next day, the cells were cotreated with forskolin and 1,018 library compounds at a concentration of 10 µM. MB and LMTM (3 µM) were used as positive controls. After 46 h, nuclei were counterstained with Hoechst (Invitrogen). BiFC (λex = 460–490 nm and λem = 500–550 nm) and Hoechst (λex = 355–385 nm and λem = 430–500 nm) fluorescence images were acquired automatically by using Operetta® (PerkinElmer). BiFC fluorescence intensity and the number of nuclei were quantified using Harmony 3.1 software (PerkinElmer). Integrated tau-BiFC intensity represents the area of selected cell X mean fluorescence intensity. The means and standard deviations (S.D.) of BiFC fluorescence intensities and the number of nuclei were plotted using GraphPad Prism.

tau [5] = assay: Tau immunoblot of primary hippocampal neuron lysates; type: cell-based, rat; details: 3 μM, nonreducing SDS-PAGE, primary neurons, tauK18^P301L; control 1.8 ± 0.3-fold
Method: Band intensity was quantified using ImageJ software (NIH). All data were normalized to β-actin.
as §1

tauK18 [6] = biological target: T2, tauK18; assay: TauK18 oligomerization assay in vitro (SDS-PAGE); type: biochemical; details: 100 μM, 5 h, nonreducing SDS-PAGE; DMSO control 50 ± 1.1%
Method: To induce tau oligomerization, tauK18 (0.5 mg/mL dissolved in PBS, pH 7.4) was incubated with each drug in the presence of DTT (100 μM) and heparin (0.1 mg/mL) at RT for 5 h with vigorous shaking. Then, tau oligomers were separated on 4–20% SDS‒PAGE gels under reducing and nonreducing conditions and visualized by Coomassie blue staining.

tau [7] = biological target: T1, tau; assay: Tau immunoblot of tau-BiFC cell lysates (reducing and nonreducing SDS-PAGE); details: 5 μM, tauK18^P301L-activated tau-BiFC cells
Method: For reducing SDS‒PAGE analysis, cell or brain lysates were mixed with 4x Laemmli buffer containing 10% β-mercaptoethanol (BME) and boiled at 97 °C for 5 min. For nonreducing SDS‒PAGE analysis, cell or brain lysates were mixed with 4x Laemmli buffer without BME. For immunoblot analysis, 10 μg of each lysate was separated on a 10% SDS–PAGE gel and transferred to a PVDF membrane. The levels of total tau and phosphorylated tau were detected by anti-tau antibodies against 2B11 (IBL), Tau5 (Abcam), pSer199 (Abcam), pSer396 (Abcam), and pThr205 (Abcam). […] Band intensity was quantified using ImageJ software (NIH). All data were normalized to β-actin.

Tau-BiFC cells = assay: Flow cytometry analysis of tau-BiFC cells; type: cell-based, human; details: drug 5 μM with tauK18^P301L
Method: After 24 h, BiFC cells were collected and subjected to flow cytometry analysis using a BD FACSLyric^TM cytometer (BD Biosciences). A total of 50,000 events were acquired per sample. All samples were gated using the same gating tree and gate positions: side scatter area (SSC-A) vs. forward scatter area (FSC-A) for viable and singlet cell populations. BiFC fluorescence was excited by a 488 nm wave laser and collected through a 527/32 bandpass filter.

tau cysteines = biological target: T3, tau cysteines (Homo sapiens, UniProt P10636); assay: Covalent binding to tau (14C autoradiography, MALDI-TOF of R1-R4 peptides); details: 720 μM with tauK18 72 μM, 2 h, RT
T3 construct: 6xHis; made in house; host or cells: E. coli BL21 (DE3)
T3 sequence (P10636 561-689 limits assumed): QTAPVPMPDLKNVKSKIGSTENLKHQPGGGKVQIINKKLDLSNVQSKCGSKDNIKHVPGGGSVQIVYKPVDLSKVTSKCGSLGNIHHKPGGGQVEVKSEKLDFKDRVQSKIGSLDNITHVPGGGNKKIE
Method: TauK18 (1 mg/mL, 72 μM) was incubated with ^14C-levosimendan (720 μM) in PBS containing 5% DMSO at RT for 2 h. Then, the mixture was separated on a 15% SDS–PAGE gel under nonreducing conditions and stained with Coomassie blue. For autoradiography, the SDS–PAGE gel was transferred to a PVDF membrane and scanned by Typhoon FLA 7000 IP (GE Healthcare).
Each repeat domain (R1, R2, R3, R4, R2-C291S or R3-C322S, 150 μM) was incubated with levosimendan (molar ratio 1:10 of a tau repeat domain: levosimendan) at RT for 37 h. The samples were mixed with matrix solution (10 mg mL^−1 sinapinic acid in 0.1% (v/v) trifluoroacetic acid/CAN) at a ratio of 1:1. The mixtures were directly spotted onto the MALDI target and dried. Mass spectra were acquired in reflection/linear positive ion mode in the m/z range of 2000–100,000 using an Ultraflex III TOF/TOF mass spectrometer controlled by Flex Control 3.0 (Bruker Daltonics). The default operating conditions were as follows: ion source 1, 25.0 kV; ion source 2, 23.0 kV; lens voltage, 6.0 kV; laser repetition rate = 100 Hz. All spectra were generated automatically in the instrument software and based on averaging 1000 shots from 10 nonoverlapping positions (100 shots/position).

Compound: tauK18 fragment (domain or fragment)
percent of total tau as disulfide-linked oligomers (DMSO control) (tauK18 fragment): 50%

Compound: CN(C)c1ccc2nc3ccc(=[N+](C)C)cc-3sc2c1 [MB, methylene blue]
Number of NeuO-stained live neurons ([3]; basal 1925 ± 66, control 943 ± 30): 986 ± 150 neurons
Neurite length ([3]; control 142.8 ± 17.8 μm): did not show a significant effect on neuronal integrity
GI50 at 48 h ([4]; Tau-BiFC^ON by forskolin (30 μM)): 6.2 ± 0.4 µM
GI50 at 48 h ([4]; Tau-BiFC^ON by tauK18^P301L (5 μg/mL)): 7.1 ± 0.3 µM
Level of disulfide-linked tau oligomers compared to basal (tau [5]): 2.3 ± 0.5 fold
Level of disulfide-linked tau oligomers (of total tau) (tauK18 [6]): 77.6 ± 2.0%
Level of disulfide-linked tau oligomers compared to basal (tau [7]; nonreducing SDS-PAGE, control 2.4 ± 0.4-fold): 1.6 ± 0.3 fold
Level of pS199-positive monomers compared to basal (tau [7]; reducing gel): 0.2 ± 0.1 fold
Level of pS199-positive oligomers compared to basal (tau [7]; reducing gel): 0.4 ± 0.2 fold
Level of pT205-positive monomers compared to basal (tau [7]; reducing gel): 0.1 ± 0.1 fold
Level of pT205-positive oligomers compared to basal (tau [7]; reducing gel): 0.7 ± 0.3 fold
P1: intact cell population out of total cells (Tau-BiFC cells; 24 h): 13.7%
Median BiFC fluorescence intensity of BiFC-responding cells (Tau-BiFC cells; BiFC^ON control […] ± 62, basal 332 ± 110): 648 ± 49

Compound: CC1CC(=O)NN=C1c1ccc(NN=C(C#N)[14C]#N)cc1 (stereo not shown) [^14C-levosimendan]
Covalent labeling of tau on nonreducing SDS-PAGE (14C-radiography) (tau cysteines): covalent attachment to tau

Further lines, with some results ahead:

Inhibition of tau aggregation in vitro (ThS response) (tauK18 [2]): did not inhibit tau aggregation in vitro
Compound: C[C@@H]1CC(=O)NN=C1c1ccc(N)cc1 [OR-1855]
Inhibition of tau-BiFC fluorescence increase (tau [1]): did not inhibit the tau-BiFC fluorescence increase

Inhibition of tau aggregation in vitro (ThS response) (tauK18 [2]): did not inhibit tau aggregation in vitro
Compound: CC(=O)Nc1ccc(C2=NNC(=O)C[C@H]2C)cc1 [OR-1896]
Inhibition of tau-BiFC fluorescence increase (tau [1]): did not inhibit the tau-BiFC fluorescence increase
